For 23 molecules, IC50 results are on record in patent publication US9403830B2, “Inhibitors of leukotriene production” (Boehringer Ingelheim International GmbH, priority 2012, dated 2016).

A word on the IC50: it is the point on the concentration scale where inhibition reaches its midpoint.

In one assay the target is T1, human LTA4 hydrolase (Homo sapiens, UniProt P09960).
T1 sequence (P09960 1-611): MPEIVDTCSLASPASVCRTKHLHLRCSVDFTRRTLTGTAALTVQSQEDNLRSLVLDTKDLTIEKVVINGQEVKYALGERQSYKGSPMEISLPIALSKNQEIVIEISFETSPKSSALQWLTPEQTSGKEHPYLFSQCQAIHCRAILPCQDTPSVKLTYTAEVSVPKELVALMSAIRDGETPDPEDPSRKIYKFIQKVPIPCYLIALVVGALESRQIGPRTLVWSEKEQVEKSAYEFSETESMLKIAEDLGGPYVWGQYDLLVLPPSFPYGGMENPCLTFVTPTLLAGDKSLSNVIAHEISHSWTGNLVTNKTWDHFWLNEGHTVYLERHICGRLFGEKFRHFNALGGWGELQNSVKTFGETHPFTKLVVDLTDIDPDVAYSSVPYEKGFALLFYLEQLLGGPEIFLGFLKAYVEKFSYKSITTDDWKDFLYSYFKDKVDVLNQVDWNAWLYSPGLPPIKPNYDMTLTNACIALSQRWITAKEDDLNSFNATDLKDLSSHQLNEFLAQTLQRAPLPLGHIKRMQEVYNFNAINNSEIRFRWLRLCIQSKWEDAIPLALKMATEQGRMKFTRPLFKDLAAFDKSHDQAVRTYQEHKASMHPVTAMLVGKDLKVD
Nature of the assay: LTA4H Enzyme assay (peptidase, Arg-AMC cleavage). Type of assay: biochemical. The note with it: LTA4H enzyme 1 nM, Arg-AMC substrate 50 μM, room temperature 1 h, fluorescence 380/460 nm. How it is done:
The compounds of the invention are assessed for the ability to interact with human LTA4 hydrolase in an enzymatic assay that measures the ability of the enzyme to cleave the peptide bond of arginyl-aminomethylcoumarin (Arg-AMC). LTA4H Enzyme (1 nM final), Arg-AMC substrate (50 μM final), and compound are combined in a reaction buffer (50 mM Tris-HCl (pH 7.5), 100 mM KCl, 0.5% bovine serum albumin) at room temperature for 1 h. The formation of product is assessed by measuring the fluorescence of aminomethylcoumarin product (excitation wavelength 380 nm/emission wavelength 460 nm). In general, the preferred potency range (IC50) of compounds in the LTA4H Enzyme assay is between 0.1 nM to 10 μM, the more preferred potency range is 0.1 nM to 0.1 μM, and the most preferred potency range is 0.1 nM to 10 nM.

In assay [1] the test system is LTB4 synthesis in human whole blood. The experiment in a line: human whole blood (HWB) assay, inhibition of LTB4 production. Type of assay: cell-based. The note with it: heparinized human whole blood, calcimycin 20 μM stimulation, plasma LTB4. Here is the method:
The compounds of the invention are additionally tested in a human whole blood (HWB) assay to determine their ability to inhibit the synthesis of LTB4 in a cellular system. Compounds are combined with heparinized human whole blood and incubated for 15 minutes at 37° C. Calcimycin (20 μM final, prepared in phosphate-buffered saline, pH 7.4) is then added and the mixture is incubated for another 30 minutes at 37° C. The samples are centrifuged for 5 min at low speed (1500×g) and the plasma layer is removed. Plasma LTB4 concentrations are then measured using an antibody-based homogenous time-resolved fluorescence method (CisBio, Bedford, Mass.). In general, the preferred potency range (IC50) of compounds in the HWB assay is between 10 nM to 10 μM, the more preferred potency range is 10 nM to 1 μM, and the most preferred potency range is 10 nM to 100 nM.

Regarding `CN(C)CCn1ncc2cc(Oc3ccc(-c4ccn[nH]4)cc3)ccc21` [Example 162, Dimethyl-(2-{5-[4-(2H-pyrazol-3-yl)-phenoxy]-indazol-1-yl}-ethyl)-amine], the IC50 against human LTA4 hydrolase stood at 0.61 nM; in assay [1] it was 120 nM.

For `CC[C@H](C)N(Cc1nc2cc(Oc3ccc(-c4ccn[nH]4)cc3)ccc2[nH]1)C(C)=O` [Example 103, N—((S)-sec-butyl)-N-{5-[4-(2H-pyrazol-3-yl)-phenoxy]-1H-benzoimidazol-2-ylmethyl}-acetamide], the IC50 against human LTA4 hydrolase stood at 0.27 nM; in assay [1], 190 nM.

Turning to `c1cc(-c2cnc(Oc3ccc4nc(CN5CCCC5)ccc4c3)nc2)[nH]n1` [Example 220, 6-[5-(2H-Pyrazol-3-yl)-pyrimidin-2-yloxy]-2-pyrrolidin-1-ylmethyl-quinoline], the IC50 stood at 1.7 nM against human LTA4 hydrolase and 160 nM in assay [1].

For the molecule `CC(C)(C)C(=O)N1CCN(Cc2nc3cc(Oc4ccc(-c5ccn[nH]5)cc4)ccc3[nH]2)CC1` [Example 70, 2,2-Dimethyl-1-(4-{5-[4-(2H-pyrazol-3-yl)-phenoxy]-1H-benzoimidazol-2-ylmethyl}-piperazin-1-yl)-propan-1-one], the IC50 at human LTA4 hydrolase amounted to 0.16 nM; in assay [1] it was 230 nM.

Regarding `O=C1OCCN1C1CCN(CCc2coc3cc(Oc4ccc(-c5ccn[nH]5)cn4)ccc23)CC1` [Example 130, 3-[1-(2-{6-[5-(2H-Pyrazol-3-yl)-pyridin-2-yloxy]-benzofuran-3-yl}-ethyl)-piperidin-4-yl]-oxazolidin-2-one], the IC50 against human LTA4 hydrolase was found to be 0.26 nM; in assay [1] it was 99 nM.

For the molecule `CC(=O)N1CCN(CCC2COc3cc(Oc4ccc(-c5ccn[nH]5)cn4)ccc32)CC1` (stereo not shown) [Example 143, 1-[4-(2-{6-[5-(2H-Pyrazol-3-yl)-pyridin-2-yloxy]-2,3-dihydro-benzofuran-3-yl}-ethyl)-piperazin-1-yl]-ethanone], the IC50 came out at 0.85 nM against human LTA4 hydrolase and 230 nM in assay [1].

Take `CC(C)N1CCN(Cc2nc3cc(Oc4ccc(-c5ccn[nH]5)cc4)ccc3[nH]2)CC1` [Example 64, 2-(4-Isopropyl-piperazin-1-ylmethyl)-5-[4-(2H-pyrazol-3-yl)-phenoxy]-1H-benzoimidazole]: the IC50 against human LTA4 hydrolase worked out at 0.14 nM; in assay [1], 180 nM.

On to `OC(C1CCN(Cc2nc3cc(Oc4ccc(-c5ccn[nH]5)cc4)ccc3[nH]2)CC1)C(F)(F)F` (stereo not shown) [Example 71, 2,2,2-Trifluoro-1-(1-{5-[4-(2H-pyrazol-3-yl)-phenoxy]-1H-benzoimidazol-2-ylmethyl}-piperidin-4-yl)-ethanol], for which the IC50 worked out at 0.14 nM against human LTA4 hydrolase and 260 nM in assay [1].

Regarding `N#CC1CCN(Cc2ccc3cc(Oc4ccc(-c5ccn[nH]5)cn4)ccc3n2)CC1` [Example 99, 1-{6-[5-(2H-pyrazol-3-yl)-pyridin-2-yloxy]-quinolin-2-ylmethyl}-piperidine-4-carbonitrile], the IC50 at human LTA4 hydrolase was 0.93 nM; in assay [1] it was 170 nM.

With `CO[C@H]1CCN(Cc2ccc3cc(Oc4ccc(-c5ccn[nH]5)cn4)ccc3n2)C1` [Example 208, 2-((S)-3-Methoxy-pyrrolidin-1-ylmethyl)-6-[5-(2H-pyrazol-3-yl)-pyridin-2-yloxy]-quinoline], the IC50 against human LTA4 hydrolase amounted to 1.2 nM; in assay [1], 220 nM.

Take `O=C1OCCN1Cc1cn2cc(Oc3ccc(-c4ccn[nH]4)cc3)ccc2n1` [Example 255, 3-{6-[4-(2H-Pyrazol-3-yl)-phenoxy]-imidazo[1,2-a]pyridin-2-ylmethyl}-oxazolidin-2-one]: the IC50 against human LTA4 hydrolase was 1.7 nM; in assay [1] it was 360 nM.

Take `N#CCC(=O)N1CCN(Cc2ccc3cc(Oc4ccc(-c5ccn[nH]5)cn4)ccc3n2)CC1` [Example 31, 3-Oxa-3-(4-{6-[5-(2H-pyrazol-3-yl)-pyridin-2-yloxy]-quinolin-2-ylmethyl}-piperazin-1-yl)-propionitrile]: the half-maximal inhibitory concentration (IC50) against human LTA4 hydrolase stood at 1 nM; in assay [1] it was 200 nM.

In the case of `O[C@H]1CCN(Cc2ccc3cc(Oc4ccc(-c5ccn[nH]5)cn4)ccc3n2)C1` [Example 210, (S)-1-{6-[5-(2H-Pyrazol-3-yl)-pyridin-2-yloxy]-quinolin-2-ylmethyl}-pyrrolidin-3-ol], the IC50 against human LTA4 hydrolase amounted to 0.82 nM; in assay [1], 230 nM.

Consider `c1cc(-c2ccc(Oc3ccc4c(cnn4CCN4CCCC4)c3)nc2)[nH]n1` [Example 83, 5-[5-(2H-Pyrazol-3-yl)-pyridin-2-yloxy]-1-(2-pyrrolidin-1-yl-ethyl)-1H-indazole], for which the figures for the IC50 (against human LTA4 hydrolase; in assay [1]) were 0.88 nM and 120 nM, respectively.

On to `c1cc(-c2ccc(Oc3ccc4[nH]c(CN5CC6(COC6)C5)nc4c3)cc2)[nH]n1` [Example 72, 2-(2-Oxa-6-aza-spiro[3.3]hept-6-ylmethyl)-5-[4-(2H-pyrazol-3-yl)-phenoxy]-1H-benzoimidazole], for which the results for the IC50 (against human LTA4 hydrolase; in assay [1]) were 0.14 nM and 320 nM, respectively.

For `CC(=O)N1CC2CCC(C1)N2Cc1ccc2cc(Oc3ccc(-c4ccn[nH]4)cc3)ccc2n1` [Example 245, 1-(8-{6-[4-(2H-Pyrazol-3-yl)-phenoxy]-quinolin-2-ylmethyl}-3,8-diaza-bicyclo[3.2.1]oct-3-yl)-ethanone], the 50% inhibitory concentration (IC50) was 0.18 nM against human LTA4 hydrolase and 170 nM in assay [1].

Take `COCCN1CCN(Cc2nc3cc(Oc4ccc(-c5ccn[nH]5)cc4)ccc3[nH]2)CC1` [Example 61, 2-[4-(2-Methoxy-ethyl)-piperazin-1-ylmethyl]-5-[4-(2H-pyrazol-3-yl)-phenoxy]-1H-benzoimidazole]: the results for the IC50 (at human LTA4 hydrolase; in assay [1]) were 0.21 nM and 140 nM, respectively.

Consider `O=C1CC[C@@H](Cn2ncc3cc(Oc4ccc(-c5ccn[nH]5)cn4)ccc32)N1` [Example 117, (S)-5-{5-[5-(2H-Pyrazol-3-yl)-pyridin-2-yloxy]-indazol-1-ylmethyl}-pyrrolidin-2-one], for which the results for the IC50 (on human LTA4 hydrolase; in assay [1]) were 4.4 nM and 650 nM, respectively.

Consider `CNCc1ccc2cc(Oc3ccc(-c4ccn[nH]4)cn3)ccc2n1` [Example 25, Methyl-{6-[5-(2H-pyrazol-3-yl)-pyridin-2-yloxy]-quinolin-2-ylmethyl}-amine], for which the IC50 on human LTA4 hydrolase is 0.5 nM; in assay [1] it was 110 nM.

As for `c1cc(-c2ccc(Oc3ccc4nc(CN5CCOCC5)cn4c3)cc2)[nH]n1` [Example 250, 2-Morpholin-4-ylmethyl-6-[4-(2H-pyrazol-3-yl)-phenoxy]-imidazo[1,2-a]pyridine], the figures for the IC50 (on human LTA4 hydrolase; in assay [1]) were 0.57 nM and 210 nM, respectively.

Turning to `O=C(CO)N1CCCN(Cc2ccc3cc(Oc4ccc(-c5ccn[nH]5)cn4)ccc3n2)CC1` [Example 140, 2-Hydroxy-1-(4-{6-[5-(2H-pyrazol-3-yl)-pyridin-2-yloxy]-quinolin-2-ylmethyl}-[1,4]diazepan-1-yl)-ethanone], the IC50 against human LTA4 hydrolase came out at 0.93 nM; in assay [1], 200 nM.

`O=C(CO)N1CCCC12CCN(Cc1ccc3cc(Oc4ccc(-c5ccn[nH]5)cn4)ccc3n1)CC2` [Example 50, 2-Hydroxy-1-(8-{6-[5-(2H-pyrazol-3-yl)-pyridin-2-yloxy]-quinolin-2-ylmethyl}-1,8-diaza-spiro[4.5]dec-1-yl)-ethanone]: the IC50 is 2.8 nM on human LTA4 hydrolase and 1100 nM in assay [1].

With `CN(CC(N)=O)Cc1ccc2cc(Oc3ccc(-c4ccn[nH]4)cn3)ccc2n1` [Example 47, 2-(Methyl-{6-[5-(2H-pyrazol-3-yl)-pyridin-2-yloxy]-quinolin-2-ylmethyl}-amino)-acetamide], the IC50 came out at 1.3 nM against human LTA4 hydrolase and 570 nM in assay [1].
